# Experimental data reported in patent publication US11919901B2 (Syndax Pharmaceuticals, Inc., priority 2021, dated 2024).
# Molecular target: Menin-MLL (Homo sapiens (Human), UniProt O00255)
# Assay: Determination of binding constants (Ki) to Menin-MLL (HTRF)
# Conditions: HTRF, 0.25 nM H-FL-Menin, 3.2 nM FITC-MLL-4-43, 24 hr incubation; for Ki: read-out: Menin-MLL Ki HTRF Assay: Ki
# Sequence of Menin-MLL (O00255 whole entry): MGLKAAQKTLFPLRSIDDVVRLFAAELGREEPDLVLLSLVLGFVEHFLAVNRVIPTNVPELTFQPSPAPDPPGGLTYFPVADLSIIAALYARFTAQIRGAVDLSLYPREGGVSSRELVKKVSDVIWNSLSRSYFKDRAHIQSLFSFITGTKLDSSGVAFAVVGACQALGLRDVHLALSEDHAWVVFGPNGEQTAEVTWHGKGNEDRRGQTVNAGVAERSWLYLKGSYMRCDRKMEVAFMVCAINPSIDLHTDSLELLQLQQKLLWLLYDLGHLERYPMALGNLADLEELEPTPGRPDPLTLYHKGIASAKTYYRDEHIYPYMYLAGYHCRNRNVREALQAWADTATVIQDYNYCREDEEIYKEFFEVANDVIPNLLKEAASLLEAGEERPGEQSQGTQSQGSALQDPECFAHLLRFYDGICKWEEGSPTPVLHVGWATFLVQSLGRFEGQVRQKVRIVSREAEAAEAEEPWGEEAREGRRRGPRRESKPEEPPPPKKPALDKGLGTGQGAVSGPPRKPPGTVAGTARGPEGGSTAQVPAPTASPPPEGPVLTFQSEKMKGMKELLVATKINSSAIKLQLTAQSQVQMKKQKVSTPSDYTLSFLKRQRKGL
Compound,EC50,Ki
"CC(C)N(C(=O)c1cc(F)ccc1Oc1cncnc1N1CC2(CCN(C[C@@H]3CC[C@@H](NS(N)(=O)=O)CO3)CC2)C1)C1CC(F)(F)C1 [Compound 117, N-(3,3-Difluorocyclobutyl)-5-fluoro-N-isopropyl-2-((4-(7-(((2S,5R)-5-(sulfamoylamino)tetrahydro-2H-pyran-2-yl)methyl)-2,7-diazaspiro[3.5]nonan-2-yl)pyrimidin-5-yl)oxy)benzamide]",< 50 nM,< 1 nM
"C[C@@H]1COC[C@@H](C)N1C(=O)c1cc(F)ccc1Oc1cncnc1N1CC2(CCN(C[C@@H]3CC[C@@H](NS(=O)(=O)N4CCCC4)CO3)CC2)C1 [Compound 124, N-((3R,6S)-6-((2-(5-(2-((3R,5R)-3,5-Dimethylmorpholine-4-carbonyl)-4-fluorophenoxy)pyrimidin-4-yl)-2,7-diazaspiro[3.5]nonan-7-yl)methyl)tetrahydro-2H-pyran-3-yl)pyrrolidine-1-sulfonamide]",,< 1 nM
C[C@@H]1COC[C@@H](C)N1C(=O)c1cc(F)ccc1Oc1cncnc1N1CC2(CCN(C[C@@H]3CC[C@@H](NS(=O)(=O)c4cnn(C)c4)CO3)CC2)C1 [Compound 126],,< 1 nM
C[C@@H]1COC[C@@H](C)N1C(=O)c1cc(F)ccc1Oc1cncnc1N1CC2(CCN(C[C@@H]3CC[C@@H](NS(=O)(=O)c4ccn(C)n4)CO3)CC2)C1 [Compound 127],,< 1 nM
"CCN(C)S(=O)(=O)N[C@@H]1CC[C@@H](CN2CCC3(CC2)CN(c2ncncc2Oc2ccc(F)cc2C(=O)N2[C@H](C)COC[C@H]2C)C3)OC1 [Compound 128, {[(3R,6S)-6-{[2-(5-{2-[(3R,5R)-3,5-Dimethylmorpholine-4-carbonyl]-4-fluorophenoxy}pyrimidin-4-yl)-2,7-diazaspiro[3.5]nonan-7-yl]methyl}oxan-3-yl]sulfamoyl}(ethyl)methylamine]",,< 1 nM
"C[C@@H]1COC[C@@H](C)N1C(=O)c1cc(F)ccc1Oc1cncnc1N1CC2(CCN(C[C@@H]3CC[C@@H](NS(=O)(=O)N(C)C4CC4)CO3)CC2)C1 [Compound 129, N-{[(3R,6S)-6-{[2-(5-{2-[(3R,5R)-3,5-Dimethylmorpholine-4-carbonyl]-4-fluorophenoxy}pyrimidin-4-yl)-2,7-diazaspiro[3.5]nonan-7-yl]methyl}oxan-3-yl]sulfamoyl}-N-methylcyclopropanamine]",,< 1 nM
"Cc1nc(S(=O)(=O)N[C@@H]2CC[C@@H](CN3CCC4(CC3)CN(c3ncncc3Oc3ccc(F)cc3C(=O)N3[C@H](C)COC[C@@H]3C)C4)OC2)cs1 [Compound 131, N-((3R,6S)-6-((2-(5-(2-((3S,5R)-3,5-Dimethylmorpholine-4-carbonyl)-4-fluorophenoxy)pyrimidin-4-yl)-2,7-diazaspiro[3.5]nonan-7-yl)methyl)tetrahydro-2H-pyran-3-yl)-2-methylthiazole-4-sulfonamide]",,< 1 nM
"CC(C)N(C(=O)c1cc(F)ccc1Oc1cncnc1N1CC2(CCN(C[C@@H]3CC[C@@H](NS(=O)(=O)C(C)C)CO3)CC2)C1)[C@@H]1CCOC1 [Compound 132, 5-Fluoro-N-i sopropyl-2-((4-(7-(((2S,5R)-5-((1-methylethyl)sulfonamido)tetrahydro-2H-pyran-2-yl)methyl)-2,7-diazaspiro[3.5]nonan-2-yl)pyrimidin-5-yl)oxy)-N-((R)-tetrahydrofuran-3-yl)benzamide]",< 50 nM,< 1 nM
"Cc1nc(S(=O)(=O)N[C@@H]2CC[C@@H](CN3CCC4(CC3)CN(c3ncncc3Oc3ccc(F)cc3C(=O)N(C(C)C)[C@@H]3CCOC3)C4)OC2)cs1 [Compound 133, 5-Fluoro-N-isopropyl-2-((4-(7-(((2S,5R)-5-((2-methylthiazole)-4-sulfonamido)tetrahydro-2H-pyran-2-yl)methyl)-2,7-diazaspiro[3.5]nonan-2-yl)pyrimidin-5-yl)oxy)-N-((R)-tetrahydrofuran-3-yl)benzamide]",,< 1 nM
